According to patent US10245328B2, “Gadolinium complex comprising DO3A-tranexamic acid conjugate” (KYUNGPOOK NATIONAL UNIVERSITY INDUSTRY-ACADEMIC COOPERATION …, priority 2014, dated 2019):

Experiments:
[1] = Stability against hydrolysis in H2O (HPLC, 197 nm); format: physicochemical; settings: for HPLC peak 2.32 min / HPLC peak 4.98 min / HPLC peak 17.21 min, 2e / HPLC peak 23.70 min, 2e isomer / HPLC peak 40.63 min / HPLC peak 42.14 min / HPLC peak 43.00 min / HPLC peak 44.95 min / HPLC peak 45.93 min / HPLC peak 46.64 min / HPLC peak 48.46 min / HPLC peak 49.36 min: 2e in water; for HPLC peak 2.38 min, 2b (trans) / HPLC peak 2.88 min, 2b (cis) / HPLC peak 3.16 min / HPLC peak 3.84 min / HPLC peak 7.66 min / HPLC peak 24.42 min / HPLC peak 28.12 min / HPLC peak 29.92 min / HPLC peak 34.46 min, Acid / HPLC peak 49.58 min: 2b in water
Method: The contrast agents of the present series 100 mg are dissolved in distilled water 10 mL and is maintained as they are for 72 hours at 50° C. Using HPLC, O.D. (Optical Density) values are read at 197 nm and the stability of the agents is determined. The substances at each retention time are examined using LC Mass Spectroscopy for accurate identification of decomposed products.

[2] = Relaxation rate measurement (R1, R2) in PBS and in PBS solution of HSA; format: physicochemical; settings: 293K; for R1 / R2: PBS pH 7.4, 64 MHz (1.5 T); for R1 in 0.67 mM HSA / R2 in 0.67 mM HSA: PBS solution of 0.67 mM HSA, 64 MHz
Method: T1 measurement is carried out using an inversion recovery method at 1.5 T (64 MHz) in a variable inverse time (TI). MR images are obtained for 35 different TI values in a range of 50 to 1750 ms. A T1 relaxation time is obtained from a nonlinear least-squares fit of a signal strength measured at each TI value. For a T2 CPMG (Carr-Purcell-Meiboon-Gill) pulse sequence measurement, the measurement is adapted to a multi spin-echo measurement. 34 images are obtained at 34 different echo time (TE) values in a range of 10 to 1900 ms. The T2 relaxation time is obtained from a nonlinear least-squares fit of mean pixel values for multi spin-echo measurement at each echo time. Next, a relaxation rate (R1 and R2) is calculated as an inverse of a relaxation time per mM. The determined relaxation time (T1 and T2) and relaxation rate (R1 and R2) are subjected to an image processing to get a relaxation time map and relaxation rate respectively.
For comparison between the complexes 2a-e, there is no noticeable difference in R1's. The measurement is carried out for two different media, that is, PBS (pH=7.4) and PBS solution of HAS in order to indicate which blood-pool effect is expressed by the complexes 2a-e.

[3] = tested on: ICR mice; assay: In vivo MR experiment, T1-weighted images after tail vein injection; settings: 0.1 mmol Gd/kg i.v.
Method: The in vivo experiment is executed with compliance to a regulation of Animal Research Committee of KNU. 29-31 g weight 6-weeks male ICR mice are used. […] The measurement is carried out before and after the injection of the complexes 2a-e through the tail vein. […] After the mice wake from the anesthesia after each measurement, the mice were placed in a cage capable of free access to feed and food. For this measurement, the animals are held at about 37° C. using a warm water blanket. MR images are taken using a 1.5 T MR unit (GE Healthcare, Milwaukee, Wis.) with a manual RF coil for a small animal. The coil may be of a receiver type having a 50 mm inner diameter. […] MR images are collected for 24 h after the injection. Anatomical positions having an improved contrast are set for a liver, a bile duct, and a kidney on (post contrast) MR images. For quantitative measurements, a signal intensity in a region of interest (ROI) is measured using Advantage Window software (GE medical, U.S.). The CNR is calculated using a following equation (1): […] SNR is a […].

[4] = Isothermal titration calorimeter (ITC), binding of Gd^3+ to ligand; settings: 25° C., pH = 4.5, read-out: Kd (dissociation constant)
Method: In order to quantify binding isotherms of paramagnetic metal ions Gd^3+ with a ligand solution, an ITC test is executed at a VP-ITC isothermal titration microcalorimeter (Microcal, USA). Data collection, analysis and plotting are executed with help of software package Origin, version 8.0 from Microcal. A sample cell has a 1.43 mL volume. The cell is filled with a water-soluble buffer solution of the above compound 1a-e ligand (0.2 mM). A water-soluble buffer solution of Gd^3+ (1.0 mM) is input into a 300 μL continuous agitated (300 rpm) syringe and 10 μL aliquots thereof is injected into the cell. At a 3-mins interval, the cell is delivered over 20 s. Data points are collected on a 2 s basis. The measurement is executed at 25° C. All titrations are executed three times to secure data consistency and solution stability. These titration isotherms are integrated to find out an enthalpy change at each injection. In order to fit well with two mathematically different sets of site models, the titration isotherms are analyzed. Via a calorie measurement, parameters including a binding constant (Ka), a change in enthalpy (ΔH), a stoichiometry of binding (N) are calculated. Next, a free energy (ΔG) and an entropy change (ΔS) are calculated using a following complexation equation: Mn++nL↔MLn:ΔG=−RT·InKa=ΔH-TΔS,
where, R indicates a universal gas constant; T is Kelvin temperature.

For `O=C([O-])CN1CCN(CC(=O)[O-])CCN(CC(=O)NCC2CCCCC2)CCN(CC(=O)[O-])CC1.[Gd+3]` [2e], the “HPLC peak 2.32 min” value ([1]; 50° C./3 day) was 0.04%, the “HPLC peak 4.98 min” value ([1]; 50° C./3 day) was 0.07% and the “HPLC peak 17.21 min, 2e” value ([1]; 50° C./3 day) was 94.66%. The “HPLC peak 23.70 min, 2e isomer” value ([1]; 50° C./3 day) was 1.57%, the “HPLC peak 40.63 min” value ([1]; 50° C./3 day) was 0.05% and the “HPLC peak 42.14 min” value ([1]; 50° C./3 day) was 0.05%. The “HPLC peak 43.00 min” value ([1]; 50° C./3 day) was 0.05%, the “HPLC peak 44.95 min” value ([1]; 50° C./3 day) was 0.05% and the “HPLC peak 45.93 min” value ([1]; 50° C./3 day) was 0.03%. For the same molecule, the “HPLC peak 46.64 min” value ([1]; 50° C./3 day) was 0.01%, the “HPLC peak 48.46 min” value ([1]; 50° C./3 day) was 0.03% and the “HPLC peak 49.36 min” value ([1]; 50° C./3 day) was 0.18%. For the same molecule, the “HPLC peak 2.32 min” value ([1]; initial) was 0.04%, the “HPLC peak 4.98 min” value ([1]; initial) was 0.09% and the “HPLC peak 17.21 min, 2e” value ([1]; initial) was 94.88%. The “HPLC peak 23.70 min, 2e isomer” value ([1]; initial) was 1.36%, the “HPLC peak 40.63 min” value ([1]; initial) was 0.03% and the “HPLC peak 42.14 min” value ([1]; initial) was 0.01%. The “HPLC peak 43.00 min” value ([1]; initial) was 0.05%, the “HPLC peak 44.95 min” value ([1]; initial) was 0.05% and the “HPLC peak 45.93 min” value ([1]; initial) was 0.04%. The “HPLC peak 46.64 min” value ([1]; initial) was 0.02%, the “HPLC peak 48.46 min” value ([1]; initial) was 0.03% and the “HPLC peak 49.36 min” value ([1]; initial) was 0.18%. The R1 [2] was 4.49 ± 0.18 mM⁻¹ s⁻¹, the R2 [2] was 4.52 ± 0.28 mM⁻¹ s⁻¹ and the “R1 in 0.67 mM HSA” value [2] was 5.21 ± 0.23 mM⁻¹ s⁻¹. The “R2 in 0.67 mM HSA” value [2] was 6.22 ± 0.28 mM⁻¹ s⁻¹.
In the case of `O=C([O-])CN1CCN(CC(=O)[O-])CCN(CC(=O)NCC2CCC(C(=O)O)CC2)CCN(CC(=O)[O-])CC1.[Gd+3]` (stereo not drawn) [2b], the “signal enhancement / signal strength at the liver” value ([3]; ICR mice, 1.5 T, initial 1 hour) is reported as “strong signal enhancement”, the “liver-specificity / class of contrast agent” value ([3]; in vivo MR images of mice) is reported as “strong specificity enhancement” and the “HPLC peak 2.38 min, 2b (trans)” value ([1]; 50° C./3 day) is reported as 93.4%. For the same molecule, the “HPLC peak 2.88 min, 2b (cis)” value ([1]; 50° C./3 day) was 2.87%, the “HPLC peak 3.16 min” value ([1]; 50° C./3 day) was 0.33% and the “HPLC peak 3.84 min” value ([1]; 50° C./3 day) was 0.38%. For the same molecule, the “HPLC peak 7.66 min” value ([1]; 50° C./3 day) was 0.06%, the “HPLC peak 24.42 min” value ([1]; 50° C./3 day) was 0.19% and the “HPLC peak 28.12 min” value ([1]; 50° C./3 day) was 0.64%. For the same molecule, the “HPLC peak 29.92 min” value ([1]; 50° C./3 day) was 0.10%, the “HPLC peak 34.46 min, Acid” value ([1]; 50° C./3 day) was 0.03% and the “HPLC peak 49.58 min” value ([1]; 50° C./3 day) was 0.21%. For the same molecule, the “HPLC peak 2.38 min, 2b (trans)” value ([1]; initial) was 92.80%, the “HPLC peak 2.88 min, 2b (cis)” value ([1]; initial) was 3.35% and the “HPLC peak 3.16 min” value ([1]; initial) was 0.30%. The “HPLC peak 3.84 min” value ([1]; initial) was 0.35%, the “HPLC peak 7.66 min” value ([1]; initial) was 0.12% and the “HPLC peak 24.42 min” value ([1]; initial) was 0.06%. The “HPLC peak 28.12 min” value ([1]; initial) was 0.56%, the “HPLC peak 29.92 min” value ([1]; initial) was 0.09% and the “HPLC peak 34.46 min, Acid” value ([1]; initial) was 0.34%. For the same molecule, the “HPLC peak 49.58 min” value ([1]; initial) was 0.19%, the R1 [2] was 3.87 ± 0.11 mM⁻¹ s⁻¹ and the R2 [2] was 3.98 ± 0.26 mM⁻¹ s⁻¹. The “R1 in 0.67 mM HSA” value [2] was 3.98 ± 0.14 mM⁻¹ s⁻¹ and the “R2 in 0.67 mM HSA” value [2] was 5.43 ± 0.28 mM⁻¹ s⁻¹.
In the case of `O=C([O-])CN1CCN(CC(=O)[O-])CCN([C@H](CO)[C@H](O)CO)CCN(CC(=O)[O-])CC1.[Gd+3]` (racemic) [Gadovist, Gd-BT-DO3A, reference compound], the R1 [2] is reported as 4.38 ± 0.15 mM⁻¹ s⁻¹, the R2 [2] is reported as 4.27 ± 0.30 mM⁻¹ s⁻¹ and the “R1 in 0.67 mM HSA” value [2] is reported as 4.81 ± 0.17 mM⁻¹ s⁻¹. For the same molecule, the “R2 in 0.67 mM HSA” value [2] was 5.54 ± 0.24 mM⁻¹ s⁻¹.
With `NCCNC(=O)C1CCC(CNC(=O)CN2CCN(CC(=O)O)CCN(CC(=O)O)CCN(CC(=O)O)CC2)CC1` (stereo not drawn) [1c] the Kd [4] was 16.8 µM.
In the case of `CNC[C@H](O)[C@@H](O)[C@H](O)[C@H](O)CO.O=C([O-])CN1CCN(CC(=O)[O-])CCN(CC(=O)O)CCN(CC(=O)[O-])CC1.[Gd+3]` [Dotarem, Gd-DOTA, reference compound], the R1 [2] is reported as 3.59 ± 0.17 mM⁻¹ s⁻¹, the R2 [2] is reported as 3.87 ± 0.20 mM⁻¹ s⁻¹ and the “R1 in 0.67 mM HSA” value [2] is reported as 4.05 ± 0.13 mM⁻¹ s⁻¹. The “R2 in 0.67 mM HSA” value [2] was 4.30 ± 0.25 mM⁻¹ s⁻¹.
